Results as given in patent US20130029334A1, “mRNA As Biomarkers For Liver Injury or Other Liver Perturbations” (priority 2010, published 2013).
“And” between values parts separate entries of the source, which are not always exact repeats. Equal entries are not always repeated. Where two headings read alike, the source gives them in different places.

Tests used:
rats [1] = experiment: Alb, Fgb, Hp mRNA expression in liver of treated rats (FIG. 2); assay type: in vivo, rat
Protocol: FIG. 2 is a graph showing a log2 fold change in expression of Alb, Fgb, and Hp mRNA (detected as cDNA), respectively, in liver of rats treated with DGAL, or with acetaminophen (APAP), as compared to references values determined from rats not treated with DGAL (Control; solid black boxes) or APAP (Control; solid black boxes), respectively.
At 48 hours, Hp mRNA levels were increased by 9, 54 and 86 fold over controls, respectively, at 100, 700, and 1400 mg/kg APAP; while Alb mRNA levels were increased by 13 and 31 fold at 700 and 1400 mg/kg.

rats [2] = conditions: 48 hours
Protocol: (§1) In this example, to model a drug causing liver perturbation (such as injury or hepatotoxicity), hepatotoxicant D-galactosamine (“DGAL”) was administered to rats. Male Sprague-Dawley rats were administered DGAL at 0 (sterile PBS) or 1000 mg/kg intraperitoneally, and sacrificed after 24 hours. […] Blood was harvested from DGAL-treated rats, and serum liver enzymes were measured using a standard laboratory assay.
(§2) In this example, to exemplify a drug causing liver injury, drug acetaminophen (“APAP”) was administered to rats. Rats were administered APAP at 0, 100, 700, and 1400 mg/kg by gavage, and then sacrificed at 6, 24 or 48 hours after treatment. Hematoxylin and eosin-stained liver sections were examined by an accredited pathologist and scored for incidence and severity of hepatocellular necrosis.

rats [3] = experiment: Whole genome microarray analysis of plasma mRNA of treated rats; assay type: in vivo, rat; conditions: 24 h; for number of mRNA biomarkers differentially expressed: 2-fold change, false discovery rate <0.05
Text: In this example, illustrated is whole genome microarray analysis, which can be used to reveal treatment-specific transcriptomic profiles following liver injury or liver enzyme induction. […] Total RNA was isolated from the 14,000×g plasma pellet from rats treated with DGAL or APAP. […] Next, this fragmented product was labeled via enzymatic attachment of a biotin-labeled nucleotide that contained an indicator molecule comprising a fluorophore. After this labeled cDNA was hybridized and bound to the oligonucleotides on the microarray, any unbound cDNA was washed away and the microarrays were scanned. During this process, the microarray chips were scanned at a wavelength that allowed the indicator molecule to fluoresce (the excitation wavelength). The level of mRNA biomarker was determined from the level of fluorescence (e.g., correlating to the amount of labeled cDNA hybridized to the microarray) using standard techniques. Data on measurement of mRNA biomarkers (which also may be representative of gene expression induced as a result of liver perturbation) was preprocessed using GC-RMA and log2-transformed. The probe-level microarray data was checked for quality using various graphical and statistical means. Arrays showing low quality RNA or poor amplification were excluded from the analysis. To evaluate the ability of whole genome microarray analysis using plasma mRNA to discriminate between DGAL- and APAP-induced liver perturbation, a one-way analysis of variance and individual t-tests were then used to identify which individual mRNA biomarkers were statistically altered between the two treatment groups. A false-discovery rate correction was used for multiple comparisons. Analysis software was utilized to identify networks of interacting genes and other functional groups using gene lists generated.

rats [4] = conditions: rat, in vivo
Protocol: as §1, §2
Using methods described previously herein, liver enzymes including serum ALT and AST levels, and plasma mRNA levels, were also assessed to determine hepatotoxicity following APAP administration.
Rats were treated with skeletal muscle toxicant bupivacaine (“BPVC”). For BPVC treatment, rats were administered 0.5 mL sterile saline or 0.5% w/v sterile solution of BPVC in saline once into both the right and left tibialis anterior muscles. […] To compare the specificity of circulating liver mRNAs with AST and ALT following skeletal muscle injury, rats were treated with BPVC, and then serum enzymes and circulating liver mRNAs were measured 24 hours after treatment.

[5] = APAP 1400 mg/kg treatment group
[6] = rat plasma, APAP 1400 mg/kg gavage

## CC(=O)Nc1ccc(O)cc1 [APAP, acetaminophen]
Rats [1]; [5]
  expression of Alb mRNA in liver: significant decrease
  expression of Hp mRNA in liver: significant decrease
Rats [2]; APAP 700 mg/kg gavage
  mortality: one rat
Rats [2]; APAP 1400 mg/kg gavage
  mortality: one rat
Rats [3]; APAP 1400 mg/kg gavage
  number of mRNA biomarkers differentially expressed: 1374
  CYP450-related mRNAs in plasma: No increases
Rats [3]; [6]
  Fold increase Adam10: 14 fold
  Fold increase Akt3: 4 fold
  Fold increase Angpt1: 23 fold
  Fold increase Arhgef12: Arhgef12 (12); F2RI2 (12) fold
  Fold increase B2M: B2M (3) fold
  Fold increase Calr: 3 fold
  Fold increase Dapp1: 5 fold
  Fold increase F2RI2: Arhgef12 (12); F2RI2 (12) fold
  Fold increase Fcgr2b: 7 fold
  Fold increase Grin1: 10 fold
  Fold increase Gsk3b: Gsk3b (6) fold
  Fold increase Hla-C: 23 fold
  Fold increase Hla-E1: 9 fold
  Fold increase Itga6: 19 fold
  Fold increase Itgav: Itgav (12) fold
  Fold increase Itgb1: 17 fold
  Fold increase Jak2: 13 fold
  Fold increase Lyn: 10 fold
  Fold increase Mapk1: 15 fold
  Fold increase Nck2: 8 fold
  Fold increase Pdia3: Canx (5); Pdia3 (5); fold
  Fold increase Prkc: 4 fold
  Fold increase Prkcq: 3 fold
  Fold increase Psap: 20 fold
  Fold increase Rac1: 4 fold
  Fold-Change Alb mRNA (first listing): 102.57 fold and 103 fold
  Fold-Change Alb mRNA (second listing): 11.26 fold
  Fold-Change Arhgap28 mRNA: 23.18 fold
  Fold-Change C2cd21 mRNA: 21.52 fold
  Fold-Change Ccl2 mRNA: 79.83 fold
  Fold-Change Ceacam1 mRNA: 28.57 fold
  Fold-Change Cxcl2 mRNA: 68.29 fold
  Fold-Change Cxcl7 mRNA: 37.96 fold
  Fold-Change Cxcl12 mRNA: 30.90 fold and 31 fold
  Fold-Change Fam183b mRNA: 26.31 fold
  Fold-Change G1p2 mRNA: 17.16 fold
  Fold-Change Galnt1 mRNA: 22.06 fold
  Fold-Change Gpnmb mRNA: 6.10 fold
  Fold-Change Hspa1a mRNA: 40.60 fold
  Fold-Change Hspa1b mRNA: 21.07 fold
  Fold-Change Kcnab1 mRNA: 24.65 fold
  Fold-Change LOC259245 mRNA: 4.94 fold
  Fold-Change Lta4h mRNA: 6.27 fold
  Fold-Change Mt2a mRNA: 16.40 fold
  Fold-Change Pde5a mRNA: 24.18 fold
  Fold-Change Pgrmc1 mRNA: 2.82 fold
  Fold-Change Prdx5 mRNA: 2.57 fold
  Fold-Change Ptprj mRNA: 61.43 fold
  Fold-Change RT1-A2 mRNA: 22.73 fold
  Fold-Change Rbp4 mRNA: 20.44 fold
  Fold-Change Serpina1 mRNA: 24.15 fold
  Fold-Change Slc24a3 mRNA (rat SEQ ID NO: 47): 25.57 fold
  Fold-Change Slc24a3 mRNA (rat SEQ ID NO: 57): 22.11 fold
  Fold-Change Srxn1 mRNA: 21.98 fold
  Fold-Change St3gal2 mRNA: 21.94 fold
  Fold-Change Tuba4a mRNA: 4.21 fold
  Fold-Change Vcl mRNA: 70.40 fold and 70 fold
  Fold-Change Xpo5 mRNA: 30.54 fold

## CCCCN1CCCCC1C(=O)Nc1c(C)cccc1C (stereo not shown) [BPVC, bupivacaine]
Rats [4]
  ALT: 73.70 ± 4.69 U/L
  AST: 368.25 ± 31.81 U/L
  elevation in serum ALT: 1.96 ×
  elevation in serum AST: 3.58 ×

## N[C@H]1C(O)O[C@H](CO)[C@H](O)[C@@H]1O (stereo partly drawn) [DGAL, D-(+)-galactosamine]
Rats [1]; DGAL-treated rats
  expression of Alb mRNA in liver: small but statistically insignificant decrease
  expression of Fgb mRNA in liver: significant decrease
  expression of Hp mRNA in liver: significant decrease
Rats [3]; DGAL 1000 mg/kg ip
  number of mRNA biomarkers differentially expressed: 804
Rats [3]; rat plasma, DGAL 1000 mg/kg ip
  Fold increase Aadat: 3 fold
  Fold increase Apoc2: 23 fold
  Fold increase C9: 10 fold
  Fold increase Cf1h: 14 fold
  Fold increase Cfb: 13 fold
  Fold increase Cfi: 25 fold
  Fold increase Cyp2a2: 15 fold
  Fold increase Cyp2c9: 32 fold
  Fold increase Cyp3a2: 26 fold
  Fold increase Cyp3a4: 26 fold
  Fold increase Cyp4f12: 13 fold
  Fold increase F2: 14 fold
  Fold increase Fga: 28 fold
  Fold increase Mettl7b: Mettl7b (9) fold
  Fold increase Pla2g4a: 7 fold
  Fold increase Plg: 17 fold
  Fold increase Serping1: 7 fold
  Fold-Change Alb mRNA (first listing): 83.32 fold and 83 fold
  Fold-Change Alb mRNA (second listing): 77.08 fold
  Fold-Change Ambp mRNA: 111.24 fold and 111 fold
  Fold-Change Apoa1 mRNA: 53.34 fold and 53 fold
  Fold-Change Apoc1 mRNA: 35.57 fold and 36 fold
  Fold-Change Apoc3 mRNA: 58.09 fold
  Fold-Change Apoh mRNA: 39.84 fold
  Fold-Change Ccl2 mRNA: 25.35 fold
  Fold-Change Cyp2c7 mRNA: 102.92 fold and 103 fold
  Fold-Change Cyp2c13 mRNA: 40.38 fold and 40 fold
  Fold-Change Fgg mRNA: 65.02 fold and 65 fold
  Fold-Change Fgl1 mRNA: 52.04 fold
  Fold-Change G1p2 mRNA: 5.78 fold
  Fold-Change Gc mRNA: 42.82 fold
  Fold-Change Gpnmb mRNA: 4.04 fold
  Fold-Change Itih1 mRNA: 52.97 fold
  Fold-Change Itih3 mRNA: 40.88 fold
  Fold-Change Kng1 mRNA: 45.12 fold
  Fold-Change LOC259245 mRNA: 11.52 fold
  Fold-Change Lta4h mRNA: 3.40 fold
  Fold-Change Mt2a mRNA: 18.20 fold
  Fold-Change Mug1 mRNA: 108.00 fold
  Fold-Change Obp3 mRNA: 96.26 fold
  Fold-Change Pgrmc1 mRNA: 3.12 fold
  Fold-Change Prdx5 mRNA: 2.03 fold
  Fold-Change Rbp4 mRNA: 36.82 fold
  Fold-Change Serpina1 mRNA: 12.61 fold
  Fold-Change Serpina3k mRNA: 36.42 fold
  Fold-Change Spp2 mRNA: 34.78 fold
  Fold-Change Ttr mRNA: 60.61 fold and 61 fold
  Fold-Change Tuba4a mRNA: 2.24 fold
  Fold-Change Vtn mRNA: 57.99 fold
